# Experimental data as given in paper PMC2665027 (Biochemistry, 2009).
# Positions count from the first letter of the chain named. Names and notes keep the numbering of the source. Values joined by “and” are separate entries in the source; they are usually repeats but may differ in a detail not shown here. Identical values can stand only once. Like-named read-outs stand apart in the source and are kept apart here.
# T1: D183A human arginase I (Homo sapiens, UniProt P05089, D183A)
# T1 sequence (P05089 1-322 D183A): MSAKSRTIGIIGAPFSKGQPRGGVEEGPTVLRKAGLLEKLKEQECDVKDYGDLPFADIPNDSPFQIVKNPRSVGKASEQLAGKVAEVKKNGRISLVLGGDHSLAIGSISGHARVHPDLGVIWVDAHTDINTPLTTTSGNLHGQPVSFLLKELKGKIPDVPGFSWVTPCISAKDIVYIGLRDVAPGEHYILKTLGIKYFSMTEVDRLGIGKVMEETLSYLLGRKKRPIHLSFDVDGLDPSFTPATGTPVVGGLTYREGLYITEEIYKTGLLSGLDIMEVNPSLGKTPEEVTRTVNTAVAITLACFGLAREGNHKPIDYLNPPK
# T2: D183N human arginase I (Homo sapiens, UniProt P05089, D183N)
# T2 sequence (P05089 1-322 D183N): T1 sequence (P05089 1-322 D183A) with A183N
# T3: T135A rat arginase I (Rattus norvegicus, UniProt P07824, T135A)
# T3 sequence (P07824 1-323 T135A): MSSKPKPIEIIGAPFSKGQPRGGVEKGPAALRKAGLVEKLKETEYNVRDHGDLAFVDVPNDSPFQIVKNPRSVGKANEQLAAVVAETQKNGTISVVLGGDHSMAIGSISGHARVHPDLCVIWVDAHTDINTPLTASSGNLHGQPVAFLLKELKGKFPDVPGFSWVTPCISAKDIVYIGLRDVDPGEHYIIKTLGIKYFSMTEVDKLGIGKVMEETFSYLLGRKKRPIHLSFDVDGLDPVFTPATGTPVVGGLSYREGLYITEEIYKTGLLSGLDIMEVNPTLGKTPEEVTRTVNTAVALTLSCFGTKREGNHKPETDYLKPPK
# T4: T135S rat arginase I (Rattus norvegicus, UniProt P07824, T135S)
# T4 sequence (P07824 1-323 T135S): T3 sequence (P07824 1-323 T135A) with A135S
# T5: N130A rat arginase I (Rattus norvegicus, UniProt P07824, N130A)
# T5 sequence (P07824 1-323 N130A): T3 sequence (P07824 1-323 T135A) with N130A, A135T
# T6: wild-type rat arginase I (Rattus norvegicus, UniProt P07824)
# T6 sequence (P07824 1-323): T3 sequence (P07824 1-323 T135A) with A135T
# B1: D183A rat arginase I (Rattus norvegicus; D183A) (protein)
# chain: T3 sequence (P07824 1-323 T135A) with A135T, D183A
# B2: N130A rat arginase I (Rattus norvegicus; N130A) (protein)
# chain: T3 sequence (P07824 1-323 T135A) with N130A, A135T
# B3: N130F rat arginase I (Rattus norvegicus; N130F) (protein)
# chain: T3 sequence (P07824 1-323 T135A) with N130F, A135T
# B4: T135A rat arginase I (Rattus norvegicus; T135A) (protein)
# chain: T3 sequence (P07824 1-323 T135A)
# B5: T135S rat arginase I (Rattus norvegicus; T135S) (protein)
# chain: T3 sequence (P07824 1-323 T135A) with A135S
# B6: N130Y rat arginase I (Rattus norvegicus; N130Y) (protein)
# chain: T3 sequence (P07824 1-323 T135A) with N130Y, A135T
# Legend:
# D183A human arginase I [1] = biological target: T1, D183A human arginase I; test: Isothermal titration calorimetry, D183A human arginase I; type: binding
# D183N human arginase I [2] = biological target: T2, D183N human arginase I; test: Isothermal titration calorimetry, D183N human arginase I; type: binding
# [3] = biological target: wild-type human arginase I; conditions: isothermal titration calorimetry; ref [30] and [48]; cited from earlier work
# T135A rat arginase I = biological target: T3, T135A rat arginase I; test: 14C-urea radioactive arginase assay, T135A rat arginase I; type: biochemical
# T135S rat arginase I = biological target: T4, T135S rat arginase I; type: biochemical
# N130A rat arginase I = biological target: T5, N130A rat arginase I; test: 14C-urea radioactive arginase assay, N130A rat arginase I; type: biochemical
# wild-type rat arginase I = biological target: T6, wild-type rat arginase I; conditions: ref [14], cited from earlier work
# rat arginase I [4] = conditions: ref [26], cited from earlier work; for diminished catalytic activity based on kcat/KM relative to L-arginine / increased KM value relative to L-arginine: alternative substrate
# D183N human arginase I [5] = biological target: T2, D183N human arginase I; test: 14C-urea radioactive arginase assay, D183N human arginase I; type: biochemical; conditions: substrate L-arginine; pH 9.0, room temperature
# D183A human arginase I [6] = biological target: T1, D183A human arginase I; conditions: substrate L-arginine; pH 9.0, room temperature
# [7] = system: wild-type human arginase I; conditions: substrate L-arginine; ref [30] and [48]; cited from earlier work
# [8] = system: proclavaminic acid amidinohydrolase; conditions: ref [54]; cited from earlier work
# rat arginase I [9] = conditions: deletion of the carboxylate group of ABH; ref [28]; cited from earlier work
# [10] = substrate: N=C(N)NCCC[C@H](N)C(=O)O; test: 14C-urea radioactive arginase assay, D183A rat arginase I; type: biochemical; conditions: other: substrate L-arginine, pH 9.0, room temperature
# [11] = substrate: N=C(N)NCCC[C@H](N)C(=O)O; test: 14C-urea radioactive arginase assay, N130A rat arginase I; type: biochemical; conditions: other: substrate L-arginine, pH 9.0, room temperature
# [12] = substrate: N=C(N)NCCC[C@H](N)C(=O)O; test: 14C-urea radioactive arginase assay, N130F rat arginase I; type: biochemical; conditions: other: substrate L-arginine, pH 9.0, room temperature
# [13] = substrate: N=C(N)NCCC[C@H](N)C(=O)O; test: 14C-urea radioactive arginase assay, T135A rat arginase I; type: biochemical; conditions: other: substrate L-arginine, pH 9.0, room temperature
# [14] = substrate: N=C(N)NCCC[C@H](N)C(=O)O; type: biochemical, rat; conditions: other: substrate L-arginine, pH 9.0, room temperature
# [15] = substrate: N=C(N)NCCC[C@H](N)C(=O)O; test: 14C-urea radioactive arginase assay, N130Y rat arginase I; type: biochemical; conditions: other: substrate L-arginine, pH 9.0, room temperature
# [16] = progress curves in the presence of 30 µM BEC linear with time
molecule,measurement,setting,value
"N[C@@H](CCCCB(O)O)C(=O)O [ABH, 2(S)-amino-6-boronohexanoic acid]",Kd,D183A human arginase I [1],7 µM
same,inhibitor binding affinity weakened relative to wild-type,"D183A human arginase I [1]; D183A vs wild-type human arginase I, calorimetric Kd",~ 1400 fold and 1400 fold
same,Kd,D183N human arginase I [2],147 nM
same,inhibitor binding affinity weakened relative to wild-type,"D183N human arginase I [2]; D183N vs wild-type human arginase I, calorimetric Kd",29 fold
same,Kd,[3],5 nM
"N[C@@H](CSCCB(O)O)C(=O)O [BEC, S-(2-boronoethyl)-L-cysteine]",Ki,T135A rat arginase I,4.5 µM
same,inhibitor binding behaviour,T135A rat arginase I; [16],does not exhibit slow-binding behavior
same,Ki,T135S rat arginase I,125 nM
same,koff,T135S rat arginase I,0.00155 s⁻¹
same,kon,T135S rat arginase I,12400 M⁻¹ s⁻¹
same,inhibitor binding behaviour,T135S rat arginase I; non-linear progress curves in the presence of BEC,slow-binding behavior
same,Ki,N130A rat arginase I,13 µM
same,diminished enzyme-inhibitor affinity relative to wild-type,N130A rat arginase I; N130A vs wild-type rat arginase I,~ 30 fold
same,inhibitor binding behaviour,N130A rat arginase I; [16],no longer a slow-binding inhibitor
same,inhibitor binding behaviour,wild-type rat arginase I,slow-binding inhibitor
same,Ki,"wild-type rat arginase I; slow-binding kinetics observed, Ki = koff/kon",400 nM
NC(N)=NCCC[C@@H](N)C(=O)O [D-arginine],substrate activity,rat arginase I [4],not a substrate
N=C(N)NCCC[C@H](N)C(=O)O [L-arginine],Km,D183N human arginase I [5],40 mM
same,kcat,D183N human arginase I [5],167 s⁻¹
same,kcat,D183A human arginase I [6],68 s⁻¹
same,Km,[7],1.5 mM
same,kcat,[7],190 s⁻¹
same,substrate acceptance,[8],does not accept L-arginine as a substrate
NC(N)=NCCC[C@H](O)C(=O)O [L-argininic acid],diminished catalytic activity based on kcat/KM relative to L-arginine,rat arginase I [4],"3,200 fold"
same,increased KM value relative to L-arginine,rat arginase I [4],9 fold
NCCCCN=C(N)N [agmatine],diminished catalytic activity based on kcat/KM relative to L-arginine,rat arginase I [4],"54,000 fold"
same,increased KM value relative to L-arginine,rat arginase I [4],11 fold
NCCCCCB(O)O [descarboxy-ABH],loss of inhibitory activity relative to ABH,rat arginase I [9],1800 fold
B1,Km,[10],13.9 mM
same,kcat,[10],14.7 s⁻¹
same,kcat/Km,[10],1100 M⁻¹ s⁻¹
B2,Km,[11],50 mM
same,kcat,[11],220 s⁻¹
same,kcat/Km,[11],4400 M⁻¹ s⁻¹
B3,Km,[12],19.3 mM
same,kcat,[12],4.8 s⁻¹
same,kcat/Km,[12],250 M⁻¹ s⁻¹
B4,Km,[13],13 mM
same,kcat,[13],260 s⁻¹
same,kcat/Km,[13],20000 M⁻¹ s⁻¹
B5,Km,[14],2.5 mM
same,kcat,[14],350 s⁻¹
same,kcat/Km,[14],140000 M⁻¹ s⁻¹
B6,Km,[15],21.4 mM
same,kcat,[15],17 s⁻¹
same,kcat/Km,[15],790 M⁻¹ s⁻¹
